For this assay, the target named is T1, haematopoietic prostaglandin D synthase (H-PGDS) (Homo sapiens, UniProt O60760).
T1 construct: Full length human H-PGDS cDNA (Invitrogen Ultimate ORF 10H13026) was amplified by PCR; 6-His (N); TEV protease cleavage site (N); made in house; host or cells: E. coli BL21 (DE3*), vector pET22b+
Nature of the assay: H-PGDS RapidFire high throughput mass spectrometry assay (conversion of PGH2 to PGD2). It is filed as biochemical. Conditions: 10 nM H-PGDS, PGH2 formed in situ by COX-2 from arachidonic acid; read-out: Potency Range (mean pIC50) (converted). Put shortly: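 PGH2 substrate generated in situ by COX-2 (full-length human, FLAG-tagged, Sf9-expressed) from arachidonic acid at ˜10 μM, then converted by full-length human His-tagged H-PGDS (E. coli-expressed). RapidFire SPE–triple quadrupole MS measured PGD2 against PGF2α as substrate surrogate to give percent conversion.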

T1 sequence (O60760 whole entry): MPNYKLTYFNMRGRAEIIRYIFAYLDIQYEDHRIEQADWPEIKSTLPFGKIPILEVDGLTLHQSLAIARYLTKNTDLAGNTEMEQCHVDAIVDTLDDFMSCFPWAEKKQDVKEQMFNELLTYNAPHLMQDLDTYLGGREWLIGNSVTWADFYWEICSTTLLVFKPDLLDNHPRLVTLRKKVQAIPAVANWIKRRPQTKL

In the case of `CS(=O)(=O)c1ccc(NC(=O)[C@H]2C[C@H](Oc3cccc4scnc34)C2)c(F)c1` [Example 247, (trans)-3-(Benzo[d]thiazol-4-yloxy)-N-(2-fluoro-4-(methylsulfonyl)phenyl)cyclobutanecarboxamide], the IC50 was 10 to 79.4 nM.
Regarding `O=C(Nc1cccc(N2CCOCC2)c1)[C@H]1C[C@H](Oc2cccc3scnc23)C1` [Example 248, (trans)-3-(Benzo[d]thiazol-4-yloxy)-N-(3-morpholinophenyl)cyclobutanecarboxamide], the IC50 was 10 to 79.4 nM.
On to `Cn1nccc1NC(=O)[C@H]1C[C@H](Oc2cccc3scnc23)C1` [Example 249, (trans)-3-(Benzo[d]thiazol-4-yloxy)-N-(1-methyl-1H-pyrazol-5-yl)cyclobutanecarboxamide], for which the IC50 was 100 to 1000 nM.
The value for `O=C(NCc1cccs1)[C@H]1C[C@H](Oc2cccc3scnc23)C1` [Example 250] was 100 to 1000 nM; that for `CC1(NC(=O)N2CC(Oc3cccc4scnc34)C2)CN(c2ncccn2)C1` [Example 251] was 100 to 1000 nM; that for `O=C(NCc1ccsc1)[C@H]1C[C@H](Oc2cccc3scnc23)C1` [Example 252] was 100 to 1000 nM.
For the compound `O=C(NC1CCCCC1)[C@H]1C[C@H](Oc2cccc3scnc23)C1` [Example 253], the IC50 was 100 to 1000 nM.
As for `Cc1ccc(CNC(=O)[C@H]2C[C@H](Oc3cccc4scnc34)C2)o1` [Example 255, (trans)-3-(Benzo[d]thiazol-4-yloxy)-N-((5-methylfuran-2-yl)methyl)cyclobutanecarboxamide], the IC50 is 100 to 1000 nM.
Regarding `CC(C)(O)[C@H]1CC[C@H](NC(=O)[C@H]2C[C@H](Oc3cc(Cl)ccc3Cl)C2)CC1` [Example 257, (trans)-3-(2,5-Dichlorophenoxy)-N-((trans)-4-(2-hydroxypropan-2-yl)cyclohexyl)cyclobutanecarboxamide], the IC50 is 100 to 1000 nM.
The value for `CC(C)(O)[C@H]1CC[C@H](NC(=O)N2CC(Oc3ccccc3OC(F)(F)F)C2)CC1` [Example 258] was 100 to 1000 nM; that for `CC(C)(O)[C@H]1CC[C@H](NC(=O)[C@H]2C[C@H](Oc3ccccc3OC(F)(F)F)C2)CC1` [Example 259, (trans)-N-((trans)-4-(2-Hydroxypropan-2-yl)cyclohexyl)-3-(2-(trifluoromethoxy)phenoxy)cyclobutanecarboxamide] was 100 to 1000 nM.
As to `CC(C)(O)[C@H]1CC[C@H](NC(=O)N2CC(Oc3cccc4ccoc34)C2)CC1` [Example 260, 3-(Benzofuran-7-yloxy)-N-((trans)-4-(2-hydroxypropan-2-yl)cyclohexyl)azetidine-1-carboxamide], the IC50 was 10 to 79.4 nM.
For the compound `N#Cc1cnc(NC(=O)[C@H]2C[C@H](Oc3cccc4ccoc34)C2)s1` [Example 261, (trans)-3-(Benzofuran-7-yloxy)-N-(5-cyanothiazol-2-yl)cyclobutanecarboxamide], the IC50 is 10 to 79.4 nM.
Turning to `CCOC(=O)Cc1csc(NC(=O)[C@H]2C[C@H](Oc3cccc4ccoc34)C2)n1` [Example 262, Ethyl 2-(2-((trans)-3-(benzofuran-7-yloxy)cyclobutanecarboxamido)thiazol-4-yl)acetate], the IC50 is 10 to 79.4 nM.
On to `CCOC(=O)Cc1nnc(NC(=O)[C@H]2C[C@H](Oc3cccc4ccoc34)C2)s1` [Example 263, Ethyl 2-(5-((trans)-3-(benzofuran-7-yloxy)cyclobutanecarboxamido)-1,3,4-thiadiazol-2-yl)acetate], for which the IC50 is 10 to 79.4 nM.
As for `CC(=O)c1cnc(NC(=O)[C@H]2C[C@H](Oc3cccc4ccoc34)C2)s1` [Example 264, (trans)-N-(5-Acetylthiazol-2-yl)-3-(benzofuran-7-yloxy)cyclobutanecarboxamide], the IC50 was 10 to 79.4 nM.
The value for `CC(C)(O)c1cnc(NC(=O)[C@H]2C[C@H](Oc3cccc4ccoc34)C2)s1` [Example 265, (trans)-3-(Benzofuran-7-yloxy)-N-(5-(2-hydroxypropan-2-yl)thiazol-2-yl)cyclobutanecarboxamide] was 10 to 79.4 nM.
